The text below walks through data of patent publication US4876346A, “Quinoline compounds” (American Home Products Corporation, priority 1986, dated 1989).

The test system of assay [1] is LTD4 induced bronchoconstriction. Description: In vivo inhibition of bronchospasm induced in guinea pigs by exogenously administered leukotrienes (Example 11). Particulars: 10 minutes before induction of bronchospasm (LTD4), guinea pig; for inhibition in vivo at 25 mg/kg / inhibition in vivo at 50 mg/kg: Cavia porcellus, read-out: % Inhibition of Max AUC. The arrangement: species or system guinea pig (male Hartley).

For assay [2], the system named is 5-HETE synthesis by rat glycogen elicited polymorphonuclear leukocytes. Description: Inhibition of synthesis of 5-HETE by rat glycogen elicited polymorphonuclear leukocytes (Example 10). The format is cell-based, rat (female Wistar). Particulars: Leukocyte, [14C]5-HETE synthesis, rat PMN; for IC50: read-out: 50% Inhibitory Concentration (IC50). Here is the method: (§1) The assay is carried out as follows:
Peritoneal PMN are obtained from female Wistar rats (150-250 g) that received an i.p. injection of 6% glycogen (10 ml). After 24 hours, rats are killed by CO2 asphyxiation and peritoneal cells are harvested by peritoneal lavage using Ca^++ and Mg^++ free Hanks' balanced salt solution (HBSS). The peritoneal exudate is centrifuged at 400 g for 10 minutes. After centrifugation, the lavaged fluid is removed and the cell pellet is […] in HBSS containing Ca^++ and Mg^++ and 10 mM L-cystein at a concentration of 2×10^7 cells/ml. To 1 ml portions of cell suspens, test drugs or vehicle are added and incubated at 37° C. for 10 minutes. Following this preincubation, the calcium ionophore (10 μM), A23187, is added together with 0.5 μCi [^14 C] arachidonic acid and further incubated for 10 minutes. The reaction is stopped by the addition of ice cold water (3 ml) and acidifying to pH 3.5. Lipoxygenase products are then extracted twice into diethyl ether. The pooled ether extracts are evaporated to dryness under nitrogen and the residue is redissolved in a small volume of methanol and spotted on aluminum backed pre-coated thin layer chromatographic plates. The samples are then co-chromatographed with authentic reference 5-HETE in the solvent system--hexane:ether:acetic acid (50:50:3). After chromatography, the areas associated with 5-HETE standard are identified by autoradiography, cut out and quantitated by liquid scintillation.
Results are expressed as % inhibition of [^14 C]5-HETE synthesis. [formula]

The subject of assay [3] is ovalbumin induced bronchospasm. In words: In vivo inhibition of ovalbumin induced bronchospasm in sensitized guinea pigs mediated by endogenous mediators (Example 12). Further details: species or system guinea pig (male Hartley). Particulars: Cavia porcellus, 10 minutes before ovalbumin challenge, guinea pig, read-out: % Inhibition of Max AUC. Here is the method:
The assay of this Example measures the in vivo ability of the compounds of the invention to inhibit the bronchospasm induced in guinea pigs by endogenous mediators of the bronchoconstriction.
as §1
Male Hartley strain guinea pigs weighing 250-350 g are sensitized to chicken ovalbumin (OA) (10 mg i.p.) on days 1 and 3 and used starting on day 26. The animals are anesthetized with pentobarbital sodium (50 mg/kg, i.p.), bilateral vagotomy is performed, and the jugular vein is cannulated for injection of drugs and the carotid artery for monitoring blood pressure. The trachea is cannulated for artificial ventilation by miniature Starling pump and for indirect measurement of respiratory volume changes as described, infra. Succinylcholine (2 mg/kg, i.v.) is administered to arrest spontaneous respiration. A cyclooxygenase inhibitor, indomethacin (10 mg/kg in tris buffer, i.v. at 9 min.) is administered to shunt arachidonic metabolism to lipoxygenase pathways. One minute later, chlorpheniramine (1.0 mg/kg in saline, i.v.) is given to attenuate the histaminic component of anaphylactic bronchoconstriction. Test drugs (dissolved in propylene glycol, polyethylene glycol or saline) are administered either intraduodenally or by aerosol at 2 or 10 minutes before antigen challenge. Anaphylactic bronchoconstriction is induced by administration by breaths of aerosolized OA (1%) or by intravenous administration of 0.1-0.3 mg/kg OA in saline. Control animals receive solvent (2 ml/kg i.d. or appropriate aerosol) in place of drug.
Respiratory volume changes are determined by a calibrated piston whose travel is recorded, via a linear transducer, on a Beckman Dynograph recorder. Maximal bronchoconstrictor volume is determined by clamping off the trachea at the end of the experiment. Overflow volumes at minutes 1, 3 and 5 are obtained from the recorded charts.
Area under the volume overflow curve (AUC) is estimated, using the overflow values at 1, 3 and 5 minutes, and expressed as a percentage of the maximal overflow AUC (equation 1): [formula] Drug effects are reported as percent inhibition of % max AUC values obtained from appropriate control animals (equation 2): [formula] Students t-test for unpaired data is used to determine statistical significance. Dose response curves are generated and ED50 doses are interpolated from the regression lines.
Results for compounds of the invention in this assay, using LTD4 for induction of bronchospasm, are given below: […]

Counter-ions that a name gives are not always drawn. Like-named read-outs stand apart in the source and are kept apart here.

With `CCOC(=O)CC(=O)NCC(O)c1cccc(OCc2ccc3ccccc3n2)c1` (racemic) [Example 7C, 3-[[2-Hydroxy-2-[3-(2-quinolinylmethoxy)phenyl]ethyl]amino]-3-oxopropanoicacid, ethyl ester], the inhibition in vivo at 25 mg/kg in assay [1] (25 mg/kg intraduodenal) worked out at 24.9%. As for `CCN(CC)C(=O)N(C)C[C@H](O)c1cccc(OCc2nc3ccccc3s2)c1` [Example 1, (1R)-1-[3-[(2-Benzthiazoyl)-methoxy]phenyl]-2-(N-methyl-N-diethylcarbamoyl)amino ethanol], the inhibition in vivo at 50 mg/kg in assay [1] (50 mg/kg intraduodenal) turned out to be 59.2%. Also, in assay [2], the inhibition at 50 µM was above 50% and the IC50 is 40.4 µM. Regarding `CCN(CC)C(=O)N(C)C[C@H](O)c1cccc(OCc2nc3ccccc3n2C)c1` [Example 2A, (1R)-1-[3-[(1-Methyl-2-benzimidazoyl)methoxy]phenyl]-2-(N-methyl-N-diethylcarbamoyl)amino ethanol], the inhibition in vivo at 50 mg/kg in assay [3] (50 mg/kg intraduodenal) was found to be 83.4%; in assay [1] (50 mg/kg intraduodenal), 77.2%. In assay [2], this compound showed an inhibition at 50 µM above 50%. For the same compound, the IC50 in assay [2] amounted to 16.4 µM. Take `CCN(CC)C(=O)N(C)C[C@H](O)c1cccc(OCc2ccc3ccccc3n2)c1` [Example 2B, (1R)-1-[3-[(2-Quinolinyl)methoxy]phenyl]-2-(N-methyl-N-diethylcarbamoyl)amino ethanol]: the inhibition in vivo at 50 mg/kg in assay [3] (50 mg/kg intraduodenal) turned out to be 75.8%.

With `CCC(=O)N(C)C[C@H](O)c1cccc(OCc2nc3ccccc3n2C)c1` [Example 2C, (1R)-1-[3-[(1-Methyl-2-benzimidazoyl)methoxy]phenyl]-2-(N-methyl-N-propanoyl)amino ethanol], the inhibition in vivo at 50 mg/kg was found to be 65.6% in assay [3] (50 mg/kg intraduodenal) and 63.9% in assay [1] (50 mg/kg intraduodenal). The same compound yielded an inhibition at 50 µM in assay [2] below 50%. On to `CN(C[C@H](O)c1cccc(OCc2ccc3ccccc3n2)c1)C(=O)c1ccncc1` [Example 2D, (1R)-1-[3-[(2-Quinolinyl)methoxy]phenyl]-2-[N-methyl-N-(4-pyridinoyl)]amino ethanol], for which, in assay [1] (50 mg/kg intraduodenal), the inhibition in vivo at 50 mg/kg was 43.9%. The same compound gave an inhibition at 50 µM in assay [2] below 50%. As for `CN(C[C@H](O)c1cccc(OCc2ccc3ccccc3n2)c1)C(=O)N(c1ccccc1)c1ccccc1` [Example 2E, (1R)-1-[3-[(2-Quinolinyl)methoxy]phenyl]-2-(N-methyl-N-diphenylcarbamoyl)amino ethanol, hydrochloride], in assay [1] (50 mg/kg intraduodenal), the inhibition in vivo at 50 mg/kg came to 21%. This compound had an inhibition at 50 µM in assay [2] above 50%.

Turning to `CN(C)C(=O)N(C)C[C@H](O)c1cccc(OCc2ccc3ccccc3n2)c1` [Example 2F, (1R)-1-[3-[(2-Quinolinyl)methoxy]phenyl]-2-(N-methyl-N-dimethylcarbamoyl)amino ethanol], the inhibition in vivo at 50 mg/kg in assay [1] (50 mg/kg intraduodenal) turned out to be 92.6%. Further, in assay [2], the inhibition at 50 µM is above 50%. The matching figures for `CCN(CC)C(=O)N(CC)C[C@H](O)c1cccc(OCc2ccc3ccccc3n2)c1` [Example 2G, (1R)-1-[3-[(2-Quinolinyl)methoxy]phenyl]-2-(N-ethyl-N-diethylcarbamoyl)amino ethanol]: 65.1% and above 50%. For the compound `CN(C)S(=O)(=O)N(C)C[C@H](O)c1cccc(OCc2ccc3ccccc3n2)c1` [Example 2H, (1R)-1-[3-[(2-Quinolinyl)methoxy]phenyl]-2-(N-methyl-N-dimethylsulfamoyl)amino ethanol], the inhibition in vivo at 50 mg/kg stood at 2.5% in assay [3] (50 mg/kg intraduodenal); 25.4% in assay [1] (po, 50 mg/kg peroral); 56% in assay [1] (50 mg/kg intraduodenal). For the compound `COC(=O)[C@@H]1CCCN1C(=O)N(C)C[C@H](O)c1cccc(OCc2ccc3ccccc3n2)c1` [Example 2I, (S)-1-[[[(R)-2-Hydroxy-2-[3-(2-quinolinylmethoxy)phenyl]ethyl]methylamino]carbonyl]-2-pyrrolidine carboxylic acid, methyl ester, hydrochloride], the results for the inhibition in vivo at 50 mg/kg in assay [3] (50 mg/kg intraduodenal) and in assay [1] (50 mg/kg intraduodenal) were 22.5% and 71.2%, respectively. For the compound `CCN(CC)C(=O)N(C)C[C@@H](O)c1cccc(OCc2ccc3ccccc3n2)c1` [Example 2J, (1S)-1-[3-[(2-Quinolinyl)methoxy]phenyl]-2-(N-methyl-N-diethylcarbamoyl)amino ethanol], the inhibition in vivo at 25 mg/kg in assay [3] (25 mg/kg intraduodenal) is 81.2%.

Take `CCOC(=O)N(C)C[C@H](O)c1cccc(OCc2ccc3ccccc3n2)c1` [Example 2K, (1R)-1-[3-[(2-Quinolinyl)methoxy]phenyl]-2-(N-methyl-N-ethylcarboxylate)amino ethanol]: the inhibition in vivo at 50 mg/kg in assay [1] (50 mg/kg intraduodenal) amounted to 70.6%. With `CCOC(=O)NCC(O)c1cccc(OCc2ccc3ccccc3n2)c1` (stereo not shown) [Example 2L, 1-[3-[(2-Quinolinyl)methoxy]phenyl]-2-(N-ethylcarboxylate)amino ethanol], the inhibition in vivo at 25 mg/kg in assay [1] (25 mg/kg intraduodenal) was 35.6%.

Take `CCNC(=O)N(C)C[C@H](O)c1cccc(OCc2ccc3ccccc3n2)c1` [Example 3]: the inhibition in vivo at 50 mg/kg came out at 46.4% in assay [3] (po, 50 mg/kg peroral) and 81.7% in assay [1] (50 mg/kg intraduodenal). In addition, in assay [1] (25 mg/kg intraduodenal), the inhibition in vivo at 25 mg/kg was 94.9%.

For the compound `CCNC(=O)O[C@@H](CN(C)C(=O)NCC)c1cccc(OCc2ccc3ccccc3n2)c1` [Example 5, Ethylcarbamic acid (1R)-2-[[(ethylamino)carbonyl]methylamino]-1-[3-(2-quinolinylmethoxy)phenyl]ethyl ester, hydrochloride], the inhibition in vivo at 50 mg/kg in assay [3] (50 mg/kg intraduodenal) stood at 80.2%; in assay [1] (po, 50 mg/kg peroral), 18.6%; in assay [1] (50 mg/kg intraduodenal), 54.2%. In the case of `O=C(NCC(O)c1cccc(OCc2ccc3ccccc3n2)c1)c1ccccn1` (stereo not shown) [Example 6, N-[2-Hydroxy-2-[3-(2-quinolinylmethoxy)phenyl]ethyl]-2-pyridine carboxamide], the inhibition in vivo at 25 mg/kg in assay [1] (25 mg/kg intraduodenal) worked out at 19.8%.

As to `O=C(NCC(O)c1cccc(OCc2ccc3ccccc3n2)c1)c1cccs1` (stereo not shown) [Example 7B, N-[2-Hydroxy-2-[3-(2-quinolinylmethoxy)phenyl]ethyl]-2-thiophene carboxamide], the inhibition in vivo at 25 mg/kg in assay [1] (25 mg/kg intraduodenal) was 81.9%.

Turning to `C#CCN(C)C[C@H](O)c1cccc(OCc2ccc3ccccc3n2)c1` [Example 8, α-[[Methyl-(2-propynyl)amino]methyl]-3-(2-quinolinylmethoxy)benzene methanol], in assay [1] (25 mg/kg intraduodenal), the inhibition in vivo at 25 mg/kg came to 41.2%. Take `O=S(=O)(NCC(O)c1cccc(OCc2ccc3ccccc3n2)c1)C(F)(F)F` (stereo not shown) [Example 9, 1,1,1-Trifluoro-N-[2-hydroxy-2-[3-(2-quinolinylmethoxy)phenyl]ethyl]methanesulfonamide]: the inhibition in vivo at 25 mg/kg in assay [1] (po, 25 mg/kg peroral) worked out at 75.6%; in assay [1] (25 mg/kg intraduodenal) it was 84.8%. On to “N-[2-Hydroxy-2-[3-(2-quinolinyl)phenyl]ethyl]benzamide [Example 7A]”, for which the “% Inhibition of Max AUC” value in assay [1] (25 mg/kg intraduodenal) was 18.1%.
